The term koff denotes a measure of how fast the partners let go of each other. Broadly, the kon is a measure of how fast the partners come together.

Bridge positions count the residues as written; N and C are the ends. Square brackets hold non-standard residues; d marks the D form. Peptide text beside a SMILES is read from it. * marks the point of attachment. 5FAM = O=C1OC2(c3ccc(O)cc3Oc3cc(O)ccc32)c2ccc(C(=O)*)cc21; R8 = C=CCCCCCC[C@@](C)(N)C(=O)O; S5 = C=CCCC[C@](C)(N)C(=O)O; Nle = CCCC[C@H](N)C(=O)O

Here are results for five compounds from article PMC9907135 (Proceedings of the National Academy of Sciences of the …, 2022).

One data set concerns the target RNF31 UBA domain (Homo sapiens, UniProt Q96EP0). Briefly: biochemical.
In data set [1] the target is T1, PD-L1:PD-1 (Homo sapiens, UniProt Q9NZQ7). Conditions: competition ELISA; n = 2. (In an ELISA, binding on a coated surface is turned into a signal by an enzyme label.)
Target sequence in this assay (Q9NZQ7 19-238 limits assumed): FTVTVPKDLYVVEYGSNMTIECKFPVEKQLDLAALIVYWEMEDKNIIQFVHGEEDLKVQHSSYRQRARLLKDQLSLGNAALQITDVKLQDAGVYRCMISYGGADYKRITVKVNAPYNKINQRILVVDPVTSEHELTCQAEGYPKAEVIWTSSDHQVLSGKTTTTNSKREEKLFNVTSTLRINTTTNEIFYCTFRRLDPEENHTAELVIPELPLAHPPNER
Data set [2] has as its target T1, PD-L1:PD-1. Conditions: SPR ABA competition, 10 μM compound, 400 nM PD-1.
Target sequence in this assay (Q9NZQ7 18-239): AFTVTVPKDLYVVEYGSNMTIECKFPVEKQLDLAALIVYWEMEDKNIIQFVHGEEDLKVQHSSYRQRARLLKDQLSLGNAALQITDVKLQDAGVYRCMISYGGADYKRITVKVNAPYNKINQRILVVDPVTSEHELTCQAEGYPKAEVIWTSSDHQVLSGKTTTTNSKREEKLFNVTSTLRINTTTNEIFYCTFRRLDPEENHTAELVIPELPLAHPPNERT
Another data set deals with PD-L1 (Homo sapiens, UniProt Q9NZQ7). Conditions: TR-FRET; n = 3 for FP peptides, n = 2 for BMS-1001. A general note: TR-FRET usually uses a lanthanide donor and a delayed reading to cut background.
Data set [3] concerns Expi293 cells. Conditions: percentage of Helicons in cells after treatment and wash; Expi293 cells 1x10^6 cells/mL, 22 hours, 37°C; washed twice with DPBS; MS quantitation, single-point calibration; n=2, mean ± SD.
Data set [4] has as its system Expi293 cells. As to conditions: luminescence at Tfinal (22 hours) divided by Tinitial, measure of ATP levels, reflective of cell health.

RNF31 UBA domain, sequence (Q96EP0 480-639): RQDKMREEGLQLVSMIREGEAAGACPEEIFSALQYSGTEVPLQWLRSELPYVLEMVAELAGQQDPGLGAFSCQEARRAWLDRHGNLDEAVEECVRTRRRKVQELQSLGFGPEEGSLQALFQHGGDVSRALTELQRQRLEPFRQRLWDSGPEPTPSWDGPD
PD-L1, sequence (Q9NZQ7 18-239): as the sequence (Q9NZQ7 18-239) above

On to `CC[C@H](C)[C@H](NC(=O)[C@H](C)NC(=O)[C@@H]1CSCC(=O)Nc2ccc(cc2)NC(=O)CSC[C@H](NC(=O)[C@H](CCCNC(=N)N)NC(=O)[C@H](CCC(N)=O)NC(=O)[C@H](CCSC)NC(=O)[C@H](C)NC(=O)[C@@H]2CCCN2C(=O)[C@H](CC(=O)O)NC(C)=O)C(=O)N[C@@H](Cc2ccccc2)C(=O)N[C@@H](CO)C(=O)N[C@@H](C)C(=O)N[C@@H](C)C(=O)N[C@@H](C(C)C)C(=O)N[C@@H](Cc2ccc(O)cc2)C(=O)N1)C(=O)N[C@@H](CO)C(N)=O` [FP06655], for which, on RNF31 UBA domain (read-out: RNF31 UBA Binding koff), the koff came to 0.052 s⁻¹. For the same compound, the kon on RNF31 UBA domain (read-out: RNF31 UBA Binding kon) stood at 1.4e+06 M⁻¹ s⁻¹.

For `Cc1cc(CN[C@H](CO)C(=O)O)c(OCc2cccc(C#N)c2)cc1OCc1cccc(-c2ccc3c(c2)OCCO3)c1C` [BMS-1001], on PD-L1:PD-1 [1], the “Inhibition of PD-L1:PD-1 binding” value is reported as “inhibits PD-L1:PD-1 binding”. On PD-L1:PD-1 [2], the “Competition with PD-1 for binding to PD-L1” value is reported as “compete more potently”. The “PD-L1 dimerization in solution” value at PD-L1 is listed as “clear evidence of PD-L1 dimerization”.

Regarding `CC[C@H](C)[C@H](NC(=O)[C@H](Cc1ccc(O)cc1)NC(=O)[C@H](CCC(N)=O)NC(=O)[C@]1(C)CCCC=CCCCCCC[C@@](C)(NC(=O)[C@H](Cc2c[nH]cn2)NC(=O)[C@@H](NC(=O)[C@@H](NC(C)=O)[C@@H](C)CC)[C@@H](C)CC)C(=O)N[C@@H](Cc2ccc(O)cc2)C(=O)N[C@@H](CCC(=O)O)C(=O)N[C@@H](C)C(=O)N[C@@H](C)C(=O)N[C@@H](Cc2ccccc2)C(=O)N[C@@H](Cc2ccccc2)C(=O)N1)C(N)=O` [FP08011] (Ac-IIH[R8]YEAAFF[S5]QYI-NH2; staple 4-11), in the data set on Expi293 cells [3], the “Helicon in cells ± SD (%)” value was determined as 6.5 ± 0.5%. Besides, the “CellTiter-Glo fold change ± SD” value in the data set with Expi293 cells [4] was 1.2 ± 0.01.

Consider `CCCC[C@H](NC(=O)[C@@H](NC(C)=O)C(C)C)C(=O)N[C@@H](CCC(=O)O)C(=O)N[C@]1(C)CCCCCCC=CCCC[C@@](C)(C(=O)N[C@@H](Cc2c[nH]cn2)C(=O)N[C@@H](Cc2ccc(O)cc2)C(=O)N[C@H](C(N)=O)C(C)C)NC(=O)[C@H]([C@@H](C)CC)NC(=O)[C@H](Cc2ccccc2)NC(=O)[C@H](C)NC(=O)[C@H](C)NC(=O)[C@H](CCC(N)=O)NC(=O)[C@H](Cc2ccc(O)cc2)NC1=O` [FP07867] (Ac-V[Nle]E[R8]YQAAFI[S5]HYV-NH2; staple 4-11), for which the “Helicon in cells ± SD (%)” value with Expi293 cells [3] is recorded as 8.6 ± 0.4%. In the data set on Expi293 cells [4], the “CellTiter-Glo fold change ± SD” value is reported as 1.2 ± 0.03.

`CC(C)C[C@H](NC(=O)[C@H](C)NC(=O)CNC(=O)[C@H](CCCCN)NC(=O)[C@H](CCCNC(=N)N)NC(=O)[C@H](C)NC(=O)[C@H](Cc1ccccc1)NC(=O)[C@H](CCCNC(=N)N)NC(=O)[C@H](CCC(N)=O)NC(=O)c1ccc2c(c1)C(=O)OC21c2ccc(O)cc2Oc2cc(O)ccc21)C(=O)N[C@@H](CCCNC(=N)N)C(=O)N[C@@H](CCC(N)=O)C(=O)N[C@@H](CCCCN)C(=O)N[C@@H](CC(N)=O)C(=O)N[C@H](C(N)=O)C(C)C` [FP47831, reference compound] (5FAM-QRFARKGALRQKNV-NH2): the “Helicon in cells ± SD (%)” value in the data set on Expi293 cells [3] is 0.0 ± 0.0%. Further, the “CellTiter-Glo fold change ± SD” value in the data set on Expi293 cells [4] turned out to be 1.1 ± 0.02.
